Several values for one entry are separate records, joined by “and”; a condition that tells them apart may be missing. Equal values may be shown once.
How the values were obtained:
[1] = 323.15 K; Liquid; Closed cell (Static) method
[2] = excess molar enthalpy (molar enthalpy of mixing); xn = mol fraction of the nth substance listed; settings: 323.15 K, Liquid, Flow calorimetry

CCO [ethanol]
Settings	vapor or sublimation pressure [kPa]
[1]	29.37

CO [methanol]
Settings	vapor or sublimation pressure [kPa]
[1]	55.3

COC [dimethyl ether] + CCO
[2]
Settings	excess molar enthalpy [kcal/mol]
x1 = 0.0428	0.0209
x1 = 0.0862	0.0423
x1 = 0.1303	0.0624
x1 = 0.175	0.0815
x1 = 0.2205	0.0994
x1 = 0.2667	0.116
x1 = 0.3137	0.131
x1 = 0.3614	0.145
x1 = 0.4098	0.156
x1 = 0.4591	0.166
x1 = 0.5092	0.171
x1 = 0.5601	0.175
x1 = 0.6118	0.177
x1 = 0.6645	0.173
x1 = 0.718	0.166
x1 = 0.7725	0.153
x1 = 0.8279	0.132
x1 = 0.8842	0.102
x1 = 0.9416	0.0583

CCCO [propan-1-ol]
Settings	vapor or sublimation pressure [kPa]
[1]	12.32

COC [dimethyl ether] + CCCCO
[2]
Settings	excess molar enthalpy [kcal/mol]
x1 = 0.0655	0.0435
x1 = 0.129	0.0805
x1 = 0.1904	0.114
x1 = 0.2499	0.141
x1 = 0.3076	0.161
x1 = 0.3635	0.179
x1 = 0.4178	0.191
x1 = 0.4705	0.199
x1 = 0.5216	0.203
x1 = 0.5713	0.204
x1 = 0.6196	0.199
x1 = 0.6666	0.192
x1 = 0.7122	0.182
x1 = 0.7567	0.167
x1 = 0.7999	0.15
x1 = 0.842	0.129
x1 = 0.8831	0.103
x1 = 0.923	0.0729
x1 = 0.962	0.0387

COC [dimethyl ether]
Settings	vapor or sublimation pressure
[1]	1143 kPa and 1142.9 kPa and 1143.2 kPa

CCCCO [butan-1-ol]
Settings	vapor or sublimation pressure [kPa]
[1]	4.61

COC [dimethyl ether] + CCCO
[2]
Settings	excess molar enthalpy [kcal/mol]
x1 = 0.0541	0.0344
x1 = 0.1078	0.0655
x1 = 0.161	0.0937
x1 = 0.2138	0.118
x1 = 0.2661	0.139
x1 = 0.3179	0.158
x1 = 0.3693	0.173
x1 = 0.4203	0.184
x1 = 0.4708	0.192
x1 = 0.521	0.197
x1 = 0.5707	0.197
x1 = 0.62	0.195
x1 = 0.6688	0.189
x1 = 0.7173	0.178
x1 = 0.7654	0.164
x1 = 0.8131	0.144
x1 = 0.8604	0.119
x1 = 0.9073	0.0865
x1 = 0.9538	0.0466

COC [dimethyl ether] + CO
[2]
Settings	excess molar enthalpy [kcal/mol]
x1 = 0.03	0.00583
x1 = 0.0614	0.0128
x1 = 0.0941	0.0203
x1 = 0.1282	0.0289
x1 = 0.164	0.0375
x1 = 0.2014	0.0466
x1 = 0.2406	0.0564
x1 = 0.2818	0.0664
x1 = 0.325	0.0765
x1 = 0.3704	0.0863
x1 = 0.4183	0.0949
x1 = 0.4688	0.104
x1 = 0.5222	0.112
x1 = 0.5786	0.117
x1 = 0.6384	0.12
x1 = 0.7018	0.12
x1 = 0.7693	0.113
x1 = 0.8412	0.0951
x1 = 0.9179	0.0605
